# Assay results: ChEMBL document CHEMBL1151757, “Synthesis, radiosynthesis, and biological evaluation of fluorine-18-labeled 2beta-carbo(fluoroalkoxy)-3beta-(3'-((Z)-2-haloethenyl)phenyl)nortropanes: candidate radioligands for in vivo imaging of the serotonin transporter with positron emission tomography” (J Med Chem, 2008)
# Test system: not listed separately
# Assay: Drug uptake in anesthetized cynomolgus monkey brain frontal lobe after 175 mins postinjection
# Format: ADME, organism-based, Macaca fascicularis
# Conditions: in vivo
row,SMILES,Drug uptake
1,O=C(OCCC[18F])C1C2CCC(CC1c1cccc(/C=C\Br)c1)N2 (configuration not stated),2.51

# Test system: Thalamus
# Assay: Drug uptake in anesthetized cynomolgus monkey brain thalamus after 12.5 mins postinjection
# Format: ADME, organism-based, Macaca fascicularis
# Set-up: unit not given here
# Conditions: in vivo
row,SMILES,Drug uptake
1,O=C(OCCC[18F])C1C2CCC(CC1c1cccc(/C=C\Br)c1)N2 (configuration not stated),4.31

# Test system: Putamen
# Assay: Drug uptake in anesthetized cynomolgus monkey brain putamen after 6.5 mins postinjection
# Format: ADME, organism-based, Macaca fascicularis
# Set-up: unit not given here
# Conditions: in vivo
row,SMILES,Drug uptake
1,O=C(OCCC[18F])C1C2CCC(CC1c1cccc(/C=C\Br)c1)N2 (configuration not stated),4.42

# Test system: Midbrain
# Assay: Drug uptake in anesthetized cynomolgus monkey brain midbrain after 125 mins postinjection
# Format: ADME, organism-based, Macaca fascicularis
# Set-up: unit not given here
# Conditions: in vivo
row,SMILES,Drug uptake
1,O=C(OCCC[18F])C1C2CCC(CC1c1cccc(/C=C\Br)c1)N2 (configuration not stated),5.5

# Test system: Medulla
# Assay: Drug uptake in anesthetized cynomolgus monkey brain medulla after 75 mins postinjection
# Format: ADME, organism-based, Macaca fascicularis
# Conditions: in vivo, 1.25 h
row,SMILES,Drug uptake
1,O=C(OCCC[18F])C1C2CCC(CC1c1cccc(/C=C\Br)c1)N2 (configuration not stated),5.49

# Test system: not listed separately
# Assay: Ratio of drug uptake in pons to cerebellum in anesthetized cynomolgus monkey after 95 mins postinjection
# Format: ADME, organism-based, Macaca fascicularis
# Conditions: in vivo
row,SMILES,Ratio
1,O=C(OCCC[18F])C1C2CCC(CC1c1cccc(/C=C\Br)c1)N2 (configuration not stated),1.2

# Test system: not listed separately
# Assay: Ratio of drug uptake in putamen to cerebellum in anesthetized cynomolgus monkey after 35 mins postinjection
# Format: ADME, organism-based, Macaca fascicularis
# Conditions: in vivo
row,SMILES,Ratio
1,O=C(OCCC[18F])C1C2CCC(CC1c1cccc(/C=C\Br)c1)N2 (configuration not stated),1.1

# Test system: not listed separately
# Assay: Drug uptake in anesthetized cynomolgus monkey brain occipital lobe after 22.5 mins postinjection
# Format: ADME, organism-based, Macaca fascicularis
# Conditions: in vivo, 0.375 h
row,SMILES,Drug uptake
1,O=C(OCCC[18F])C1C2CCC(CC1c1cccc(/C=C\Br)c1)N2 (configuration not stated),4.5

# Test system: Midbrain
# Assay: Drug uptake in anesthetized cynomolgus monkey brain midbrain after 9.5 mins postinjection
# Format: ADME, organism-based, Macaca fascicularis
# Set-up: unit not given here
# Conditions: in vivo
row,SMILES,Drug uptake
1,O=C(OCCC[18F])C1C2CCC(CC1c1cccc(/C=C\Br)c1)N2 (configuration not stated),5.04

# Test system: not listed separately
# Assay: Ratio of drug uptake in pons to cerebellum in anesthetized cynomolgus monkey after 1.5 mins postinjection
# Format: ADME, organism-based, Macaca fascicularis
# Conditions: in vivo, 0.025 h
row,SMILES,Ratio
1,O=C(OCCC[18F])C1C2CCC(CC1c1cccc(/C=C\Br)c1)N2 (configuration not stated),0.8

# Test system: not listed separately
# Assay: Drug uptake in anesthetized cynomolgus monkey brain frontal lobe after 85 mins postinjection
# Format: ADME, organism-based, Macaca fascicularis
# Conditions: in vivo
row,SMILES,Drug uptake
1,O=C(OCCC[18F])C1C2CCC(CC1c1cccc(/C=C\Br)c1)N2 (configuration not stated),3.32

# Test system: not listed separately
# Assay: Ratio of drug uptake in occipital lobe to cerebellum in anesthetized cynomolgus monkey after 18.5 mins postinjection
# Format: ADME, organism-based, Macaca fascicularis
# Conditions: in vivo
row,SMILES,Ratio
1,O=C(OCCC[18F])C1C2CCC(CC1c1cccc(/C=C\Br)c1)N2 (configuration not stated),0.7

# Test system: Medulla
# Assay: Drug uptake in anesthetized cynomolgus monkey brain medulla after 215 mins postinjection
# Format: ADME, organism-based, Macaca fascicularis
# Conditions: in vivo
row,SMILES,Drug uptake
1,O=C(OCCC[18F])C1C2CCC(CC1c1cccc(/C=C\Br)c1)N2 (configuration not stated),3.67

# Test system: not listed separately
# Assay: Ratio of drug uptake in midbrain to cerebellum in anesthetized cynomolgus monkey after 18.5 mins postinjection
# Format: ADME, organism-based, Macaca fascicularis
# Conditions: in vivo
row,SMILES,Ratio
1,O=C(OCCC[18F])C1C2CCC(CC1c1cccc(/C=C\Br)c1)N2 (configuration not stated),0.9

# Test system: Thalamus
# Assay: Drug uptake in anesthetized cynomolgus monkey brain thalamus after 215 mins postinjection
# Format: ADME, organism-based, Macaca fascicularis
# Set-up: unit not given here
# Conditions: in vivo
row,SMILES,Drug uptake
1,O=C(OCCC[18F])C1C2CCC(CC1c1cccc(/C=C\Br)c1)N2 (configuration not stated),3.62

# Test system: not listed separately
# Assay: Ratio of drug uptake in frontal lobe to cerebellum in anesthetized cynomolgus monkey after 75 mins postinjection
# Format: ADME, organism-based, Macaca fascicularis
# Conditions: in vivo, 1.25 h
row,SMILES,Ratio
1,O=C(OCCC[18F])C1C2CCC(CC1c1cccc(/C=C\Br)c1)N2 (configuration not stated),0.9

# Test system: Putamen
# Assay: Drug uptake in anesthetized cynomolgus monkey brain putamen after 4.5 mins postinjection
# Format: ADME, organism-based, Macaca fascicularis
# Set-up: unit not given here
# Conditions: in vivo, 0.075 h
row,SMILES,Drug uptake
1,O=C(OCCC[18F])C1C2CCC(CC1c1cccc(/C=C\Br)c1)N2 (configuration not stated),3.11

# Test system: not listed separately
# Assay: Drug uptake in anesthetized cynomolgus monkey brain frontal lobe after 12.5 mins postinjection
# Format: ADME, organism-based, Macaca fascicularis
# Conditions: in vivo
row,SMILES,Drug uptake
1,O=C(OCCC[18F])C1C2CCC(CC1c1cccc(/C=C\Br)c1)N2 (configuration not stated),3.5

# Test system: Medulla
# Assay: Drug uptake in anesthetized cynomolgus monkey brain medulla after 0.5 mins postinjection
# Format: ADME, organism-based, Macaca fascicularis
# Conditions: in vivo
row,SMILES,Drug uptake
1,O=C(OCCC[18F])C1C2CCC(CC1c1cccc(/C=C\Br)c1)N2 (configuration not stated),0.02

# Test system: Medulla
# Assay: Drug uptake in anesthetized cynomolgus monkey brain medulla after 55 mins postinjection
# Format: ADME, organism-based, Macaca fascicularis
# Conditions: in vivo
row,SMILES,Drug uptake
1,O=C(OCCC[18F])C1C2CCC(CC1c1cccc(/C=C\Br)c1)N2 (configuration not stated),5.66

# Test system: not listed separately
# Assay: Drug uptake in anesthetized cynomolgus monkey brain cerebellum after 9.5 mins postinjection
# Format: ADME, organism-based, Macaca fascicularis
# Conditions: in vivo
row,SMILES,Drug uptake
1,O=C(OCCC[18F])C1C2CCC(CC1c1cccc(/C=C\Br)c1)N2 (configuration not stated),5.92

# Test system: Putamen
# Assay: Drug uptake in anesthetized cynomolgus monkey brain putamen after 115 mins postinjection
# Format: ADME, organism-based, Macaca fascicularis
# Set-up: unit not given here
# Conditions: in vivo
row,SMILES,Drug uptake
1,O=C(OCCC[18F])C1C2CCC(CC1c1cccc(/C=C\Br)c1)N2 (configuration not stated),5.03

# Test system: not listed separately
# Assay: Drug uptake in anesthetized cynomolgus monkey brain frontal lobe after 9.5 mins postinjection
# Format: ADME, organism-based, Macaca fascicularis
# Conditions: in vivo
row,SMILES,Drug uptake
1,O=C(OCCC[18F])C1C2CCC(CC1c1cccc(/C=C\Br)c1)N2 (configuration not stated),3.19

# Test system: not listed separately
# Assay: Drug uptake in anesthetized cynomolgus monkey brain frontal lobe after 235 mins postinjection
# Format: ADME, organism-based, Macaca fascicularis
# Conditions: in vivo
row,SMILES,Drug uptake
1,O=C(OCCC[18F])C1C2CCC(CC1c1cccc(/C=C\Br)c1)N2 (configuration not stated),2.01

# Test system: not listed separately
# Assay: Drug uptake in anesthetized cynomolgus monkey brain occipital lobe after 75 mins postinjection
# Format: ADME, organism-based, Macaca fascicularis
# Conditions: in vivo, 1.25 h
row,SMILES,Drug uptake
1,O=C(OCCC[18F])C1C2CCC(CC1c1cccc(/C=C\Br)c1)N2 (configuration not stated),4.29

# Test system: Midbrain
# Assay: Drug uptake in anesthetized cynomolgus monkey brain midbrain after 225 mins postinjection
# Format: ADME, organism-based, Macaca fascicularis
# Conditions: in vivo, 3.75 h
row,SMILES,Drug uptake
1,O=C(OCCC[18F])C1C2CCC(CC1c1cccc(/C=C\Br)c1)N2 (configuration not stated),4.29

# Test system: not listed separately
# Assay: Drug uptake in anesthetized cynomolgus monkey brain cerebellum after 18.5 mins postinjection
# Format: ADME, organism-based, Macaca fascicularis
# Conditions: in vivo
row,SMILES,Drug uptake
1,O=C(OCCC[18F])C1C2CCC(CC1c1cccc(/C=C\Br)c1)N2 (configuration not stated),6.08
